Calls of active or inactive are those of the source. The calls are words filed in the database; no cut-off is given here.
Legend:
Quadruplex DNA [1] = details: time 10.0 min
Quadruplex DNA [2] = details: time 10.0 min; remark: listed apart in the source
Quadruplex RNA [3] = details: time 10.0 min
Quadruplex RNA [4] = details: time 10.0 min; remark: listed apart in the source
Quadruplex DNA [5] = details: time 10.0 min; remark: listed apart in the source
Quadruplex DNA [6] = details: time 10.0 min; remark: listed apart in the source
MCF7 [7] = test: Cytotoxicity against human MCF7 cells assessed as reduction in cell viability at 0.625 to 20 uM incubated for 6 days by SRB assay; format: functional, cell-based; details: dose 0.625-20 µM, time 6.0 day
SK-BR-3 = test: Cytotoxicity against human SK-BR-3 cells assessed as reduction in cell viability at 20 uM incubated for 6 days by SRB assay; format: functional, cell-based; details: time 6.0 day
MDA-MB-231 [8] = test: Induction of DNA damage in human MDA-MB-231 cells assessed as increase in gamma-H2AX level at IC50 concentration incubated for 6 days by flow cytometric analysis; format: functional, cell-based; details: time 6.0 day
MCF7 [9] = test: Cytotoxicity against human MCF7 cells assessed as reduction in cell viability incubated for 6 days by SRB assay; format: functional, cell-based; details: Homo sapiens, MCF7, 144 h; for IC25: time 6 day, read-out: IC25
Quadruplex DNA [10] = test: Stabilization of G4 quadruplex DNA (unknown origin) in human MCF7 cells at IC50 concentration incubated for 6 days by flow cytometric analysis; format: cell-based; details: time 6.0 day
MCF7 [11] = test: Induction of DNA damage in human MCF7 cells assessed as increase in gamma-H2AX level at IC50 concentration incubated for 6 days by flow cytometric analysis; format: functional, cell-based; details: time 6.0 day
MDA-MB-231 [12] = test: Cytotoxicity against human MDA-MB-231 cells assessed as reduction in cell viability incubated for 6 days by SRB assay; format: functional, cell-based; details: Homo sapiens, MDA-MB-231, 144 h
MDA-MB-231 [13] = test: Effect on cell cycle arrest in human MDA-MB-231 cells at IC25 concentration incubated for 6 days by PI staining based flow cytometric analysis; format: functional; details: time 6.0 day
MCF7 [14] = test: Effect on cell cycle arrest in human MCF7 cells at IC50 concentration incubated for 6 days by PI staining based flow cytometric analysis; format: functional; details: time 6.0 day
MDA-MB-231 [15] = test: Cytotoxicity against human MDA-MB-231 cells assessed as reduction in cell viability at 20 uM incubated for 6 days by SRB assay; format: functional, cell-based; details: time 6.0 day
MCF7 [16] = test: Effect on cell cycle arrest in human MCF7 cells at IC25 concentration incubated for 6 days by PI staining based flow cytometric analysis; format: functional; details: time 6.0 day
Quadruplex DNA [17] = test: Stabilization of G4 quadruplex DNA (unknown origin) in human MDA-MB-231 cells assessed as increase in G4 motif at IC50 concentration incubated for 6 days by flow cytometric analysis; format: cell-based; details: time 6.0 day
MDA-MB-231 [18] = test: Effect on cell cycle arrest in human MDA-MB-231 cells at IC50 concentration incubated for 6 days by PI staining based flow cytometric analysis; format: functional; details: time 6.0 day

SMILES | deltaTm1/2 (Quadruplex DNA [1]) [°C] | deltaTm1/2 (Quadruplex DNA [2]) [°C] | deltaTm1/2 (Quadruplex RNA [3]) [°C] | deltaTm1/2 (Quadruplex RNA [4]) [°C] | deltaTm1/2 (Quadruplex DNA [5]) [°C] | deltaTm1/2 (Quadruplex DNA [6]) [°C] | other results
CCn1cc(C(=O)O)c(=O)c2cc(F)c(N3CCN(C)CC3)cc21 | 4.5 | 1 | 3.3 | 9.8 | 8 | 4.6 | 
CN(C)CCCOc1nn(Cc2ccccc2)c2ccccc12 | 3 | 1.1 | 0.3 | 5.1 | 8.4 | 2.5 | 
Cn1nnc(-c2ccc(-c3ccc(N4C[C@H](CO)OC4=O)cc3F)cn2)n1 | 1 | 2.3 | 1.2 | 1 | 3 | 1.2 | 
CN1CCC[C@@H]1Cc1c[nH]c2ccc(CCS(=O)(=O)c3ccccc3)cc12 | 5.2 | 4 | 0.8 | 4.5 | 6 | 0.6 | Activity (MCF7 [7]): Active
COc1cc(O)c(C(=O)Nc2nc(C(=O)NCCN(C(C)C)C(C)C)cs2)cc1OC | 4.4 | 9.4 | 3.5 | 7.5 | 9.5 | 3.9 | 
CN1CCCC(n2nc(Cc3ccc(Cl)cc3)c3ccccc3c2=O)CC1 (stereo unspecified) [AZELASTINE] | 5.3 | 8.1 | 2.3 | 9.6 | 17.1 | 7.7 | Activity (SK-BR-3): Active; Activity (MDA-MB-231 [8]): inactive; IC50 (MCF7 [9]): 10.3 µM; IC25 (MCF7 [9]): 5.8 µM; Activity (Quadruplex DNA [10]): Active; Activity (MCF7 [11]): Active; IC50 (MDA-MB-231 [12]): 8.2 µM; IC25 (MDA-MB-231 [12]; time 6 day, read-out: IC25): 5.2 µM; Activity (MDA-MB-231 [13]): inactive; Activity (MCF7 [14]): inactive; Activity (MDA-MB-231 [15]): Active; Activity (MCF7 [16]): inactive; Activity (Quadruplex DNA [17]): Active; Activity (MDA-MB-231 [18]): inactive
CCc1cc2c(cc1CC)CC(NC[C@H](O)c1ccc(O)c3[nH]c(=O)ccc13)C2 [INDACATEROL] | 5.8 | 4 | 0.6 | 4.9 | 6.2 | 1.5 | IC50 (MCF7 [9]): 7.4 µM; IC25 (MCF7 [9]): 4.3 µM
COc1cc(NC(C)CCCN)c2ncccc2c1 (stereo unspecified) | -2.6 | 3.7 | 0.3 | 4.2 | 3.6 | 0.4 | 
CONC(=O)Nc1ccc(-c2sc3c(c2CN(C)C)c(=O)n(-c2ccc(OC)nn2)c(=O)n3Cc2c(F)cccc2F)cc1 | 1.9 | 4.3 | -0.2 | 9.7 | 9.8 | 2.4 | 

Reference: ChEMBL document CHEMBL6153050, “Repurposing FDA-approved drugs to target G-quadruplexes in breast cancer” (Eur J Med Chem, 2025)
